Assay [1] deals with T1, TNKS1 (Homo sapiens, UniProt O95271).
T1 construct: purchased BPS Bioscience, San Diego, CA
T1 sequence (O95271 1-1327): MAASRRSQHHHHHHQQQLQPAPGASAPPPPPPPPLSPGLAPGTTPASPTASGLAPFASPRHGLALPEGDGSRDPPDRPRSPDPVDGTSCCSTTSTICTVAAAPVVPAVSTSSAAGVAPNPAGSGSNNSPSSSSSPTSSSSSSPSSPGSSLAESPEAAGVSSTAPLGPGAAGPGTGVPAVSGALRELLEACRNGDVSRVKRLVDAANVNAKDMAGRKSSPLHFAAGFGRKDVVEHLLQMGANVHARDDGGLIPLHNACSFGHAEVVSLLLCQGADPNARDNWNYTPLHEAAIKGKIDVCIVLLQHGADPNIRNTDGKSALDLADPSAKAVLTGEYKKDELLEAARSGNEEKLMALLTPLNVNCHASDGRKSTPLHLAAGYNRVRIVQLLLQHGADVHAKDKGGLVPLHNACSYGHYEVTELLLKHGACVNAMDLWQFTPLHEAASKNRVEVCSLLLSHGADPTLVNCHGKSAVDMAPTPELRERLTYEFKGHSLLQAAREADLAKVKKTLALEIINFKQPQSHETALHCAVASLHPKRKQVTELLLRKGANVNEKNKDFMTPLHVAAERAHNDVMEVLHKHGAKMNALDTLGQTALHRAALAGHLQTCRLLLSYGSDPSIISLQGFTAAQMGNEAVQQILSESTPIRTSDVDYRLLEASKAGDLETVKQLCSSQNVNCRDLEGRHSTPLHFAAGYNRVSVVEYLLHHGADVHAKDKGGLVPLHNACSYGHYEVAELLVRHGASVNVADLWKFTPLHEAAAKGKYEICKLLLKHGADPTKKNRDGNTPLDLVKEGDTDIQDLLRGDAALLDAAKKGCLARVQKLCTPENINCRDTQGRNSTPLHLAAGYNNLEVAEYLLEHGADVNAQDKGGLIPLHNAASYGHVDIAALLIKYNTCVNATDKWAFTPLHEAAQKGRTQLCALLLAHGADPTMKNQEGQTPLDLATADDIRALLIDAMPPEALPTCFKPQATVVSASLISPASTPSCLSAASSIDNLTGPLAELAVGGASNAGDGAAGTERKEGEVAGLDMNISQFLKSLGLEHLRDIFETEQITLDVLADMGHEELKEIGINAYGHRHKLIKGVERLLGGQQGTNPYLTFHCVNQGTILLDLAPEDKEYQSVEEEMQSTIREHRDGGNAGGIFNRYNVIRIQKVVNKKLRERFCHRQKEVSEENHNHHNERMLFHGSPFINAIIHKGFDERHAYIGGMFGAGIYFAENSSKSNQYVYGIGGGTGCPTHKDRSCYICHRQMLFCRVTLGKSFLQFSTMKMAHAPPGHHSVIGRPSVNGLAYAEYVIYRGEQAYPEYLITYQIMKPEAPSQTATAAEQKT
In words: PARP family enzyme activity inhibition screening (BPS Bioscience). It counts as biochemical. Particulars: 100 nM inhibitor. The method, then: (§1) Fig. 1 Properties of PARP inhibitors. a Structures of 5 clinical therapeutic PARP inhibitors and the 2 PARP imaging agents. b Heatmap visualizing enzymatic activity screening of 10 small molecules against 12 PARP enzymes at 100 nM concentration (for additional concentrations, see Supplementary Fig. 1)
(§2) Assay was performed by BPS Bioscience, San Diego, CA. 100 µM DMSO solutions of each inhibitor were provided, and the assay was conducted after dilution to 100, 50, or 10 nM. […] Data was reported by BPS as % Enzyme Activity. Triplicates were combined to get a mean ± SD, and these were grouped and plotted onto a heatmap using Prism 7.
(§3) Supplementary Figure 1 | PARP enzyme family binding assays at additional concentrations.
(§4) histone substrate and biotin-labeled NAD+ at 100 nM (Fig. 1b), 50 nM (left) and 10 nM (right) for
(§5) each inhibitor and each enzyme.

The target in assay [2] is T2, TNKS2 (Homo sapiens, UniProt Q9H2K2).
T2 construct: purchased BPS Bioscience, San Diego, CA
T2 sequence (Q9H2K2 1-1166): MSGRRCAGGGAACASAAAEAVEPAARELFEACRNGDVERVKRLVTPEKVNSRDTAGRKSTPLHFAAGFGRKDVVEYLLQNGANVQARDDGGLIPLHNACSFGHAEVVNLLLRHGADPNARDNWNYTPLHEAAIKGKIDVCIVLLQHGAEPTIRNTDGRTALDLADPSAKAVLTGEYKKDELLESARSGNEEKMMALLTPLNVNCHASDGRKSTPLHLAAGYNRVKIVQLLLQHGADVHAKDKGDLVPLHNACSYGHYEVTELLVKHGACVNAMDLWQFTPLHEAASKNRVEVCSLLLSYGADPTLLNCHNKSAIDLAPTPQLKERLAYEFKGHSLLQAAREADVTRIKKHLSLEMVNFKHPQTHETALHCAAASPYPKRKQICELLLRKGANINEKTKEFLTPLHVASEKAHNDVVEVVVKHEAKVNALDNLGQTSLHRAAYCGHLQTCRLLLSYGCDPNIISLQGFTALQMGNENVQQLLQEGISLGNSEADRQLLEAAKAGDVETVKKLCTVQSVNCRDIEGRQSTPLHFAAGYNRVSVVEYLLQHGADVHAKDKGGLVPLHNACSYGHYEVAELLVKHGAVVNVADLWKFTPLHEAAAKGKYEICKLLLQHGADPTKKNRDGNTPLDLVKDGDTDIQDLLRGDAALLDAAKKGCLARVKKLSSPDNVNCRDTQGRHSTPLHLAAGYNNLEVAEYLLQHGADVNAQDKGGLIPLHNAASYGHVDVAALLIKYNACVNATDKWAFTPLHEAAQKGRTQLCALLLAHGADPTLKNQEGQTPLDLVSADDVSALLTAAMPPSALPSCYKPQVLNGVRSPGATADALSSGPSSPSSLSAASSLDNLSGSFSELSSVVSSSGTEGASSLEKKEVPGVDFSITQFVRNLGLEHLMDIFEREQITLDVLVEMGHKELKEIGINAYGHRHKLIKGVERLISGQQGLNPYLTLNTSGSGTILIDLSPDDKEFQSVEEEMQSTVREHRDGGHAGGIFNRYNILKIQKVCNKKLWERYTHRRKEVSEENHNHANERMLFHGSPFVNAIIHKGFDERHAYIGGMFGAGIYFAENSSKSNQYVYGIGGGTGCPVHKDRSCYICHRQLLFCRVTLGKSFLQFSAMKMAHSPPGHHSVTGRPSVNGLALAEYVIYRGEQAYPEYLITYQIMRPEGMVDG
Described as above. It counts as biochemical. Conditions: 100 nM inhibitor. The method, then:
as §1, §2, §3, §4, §5

With `CC1=CC(C)=[N+]2C1=Cc1ccc(CCC(=O)N3CCN(C(=O)c4cc(Cc5n[nH]c(=O)c6ccccc56)ccc4F)CC3)n1[B-]2(F)F` [PARPi-FL], the inhibition at 0.1 µM in assay [1] and in assay [2] was at most 5% in each case.

With `Cn1ncnc1[C@H]1c2n[nH]c(=O)c3cc(F)cc(c23)N[C@@H]1c1ccc(F)cc1` [Talazoparib, (8S,9R)-5-Fluoro-8-(4-fluorophenyl)-9-(1-methyl-1H-1,2,4-triazol-5-yl)-2,7,8,9-tetrahydro-3H-pyrido[4,3,2-de]phthalazin-3-one], in assay [1], the “Inhibition of TNKS1 enzyme activity” value is recorded as “exhibited inhibition”. In assay [2], the “Inhibition of TNKS2 enzyme activity” value is reported as “exhibited inhibition”.

Consider `O=C(c1ccc(F)cc1)N1CCN(C(=O)c2cc(Cc3n[nH]c(=O)c4ccccc34)ccc2F)CC1` [^19F-PARPi], for which the “Inhibition of TNKS1 enzyme activity” value in assay [1] is given as at most 5%. Also, in assay [2], the “Inhibition of TNKS2 enzyme activity” value is on record as at most 5%.

The values above are taken from publication PMC5766608, “Target engagement imaging of PARP inhibitors in small-cell lung cancer” (Nature Communications, 2018).
